The values below come from PMC11997890, “In Vivo and In Vitro Pharmacokinetic Studies of a Dual Topoisomerase I/II Inhibitor” (ACS Pharmacology & Translational Science, 2025).

pIC50: −log10 of the molar value.

As a reminder, the pIC50 is −log10 of the IC50, conventionally taken in molar units.

The target in one data set is T1, CYP2C8 (Homo sapiens, UniProt P10632).
T1 construct: host or cells: human liver microsomes (one value) / recombinant CYP enzyme (other value)
Kind of data set: In vitro CYP inhibition, marker substrate amodiaquine. Format: in vitro ADME. The method, then: To assess metabolizing enzyme-mediated drug interactions, P8-D6 was incubated with human liver (HLM) or recombinant CYP enzymes and the respective marker substrate according to the FDA (with the exception of using amitriptyline instead of S-mephenytoin). −
However, as some conversions were catalyzed by several enzymes, the conversion rates in HLM increased (e.g., bupropion and diclofenac).
To examine a possible in vitro CYP inhibition, the following CYP enzymes and marker substrates were investigated according to the FDA: , phenacetin (CYP1A2), bupropion (CYP2B6), amodiaquine (CYP2C8), diclofenac (CYP2C9), amitriptyline (CYP2C19), dextromethorphan (CYP2D6), testosterone (CYP3A4), and nifedipine (CYP3A4). Incubation was performed in a 0.2 mL reaction mix consisting of PBS buffer (pH 7.4), 1 mM marker substrate, 1 mM NADPH, and either 0.5 mg/mL recombinant CYP enzyme or human liver microsomes. P8-D6 was added for a final concentration of 0.5 μM, 1 μM, 5 μM, 10 μM, 25 μM, 50 μM, 100 μM, 500 μM, 1000 μM, and (in some cases) 5000 μM. Sample preparation was performed according to in vitro biotransformation.

The conditions of data set [1]: mice; ref not given; cited from earlier work.
For a further data set, the target named is T2, CYP3A4 (Homo sapiens, UniProt P08684).
T2 construct: host or cells: human liver microsomes (one value) / recombinant CYP enzyme (other value)
In words: Conversion of P8-D6 by recombinant CYP3A4. Format: in vitro ADME. How it is done: (§1) P8-D6 N-oxide was the most common metabolite for all incubations with subcellular fractions from the homogenized tissue. According to the detected MS-MS fragments (supplied as Supporting Information Chapter 2), it resulted from N-oxygenation of the nitrogen at the side chain since the unmodified fragment of P8-DO (m/z = 414.1) was detected. Furthermore, the detected fragment at m/z = 440.1 is most likely a carbocation at the remaining ethyl chain after splitting off the dimethylamine N-oxide further strengthening the theory of selectively forming this specific N-oxide. In addition, no relevant chemical shifts in the aromatic range of the ^1H NMR compared to P8-D6 and mono were observed (supplied as Supporting Information Chapter 2). Thus, no chemical modifications can have occurred on the aromatic rings, and all changes must therefore affect the side chain. […] To determine which enzymes were responsible for the conversion, seven recombinant CYP 450 isoenzymes recommended by the FDA’s “Guidance for Industry” and human FMO3 were used.
Among the recombinant enzymes, P8-D6 is mostly metabolized to P8-D6 mono by CYP3A4 (0.34%, significant compared to any other enzyme, p < 0.0001) and 2D6 (0.17%, significant compared to 2C8, 1A2, 2C19, and 2C9, p < 0.005) (Figure E). […]

The target of the next data set is T3, CYP2C9 (Homo sapiens, UniProt P11712).
T3 construct: host or cells: human liver microsomes (one value) / recombinant CYP enzyme (other value)
Kind of data set: Conversion of P8-D6 by recombinant CYP2C9. Format: in vitro ADME. How it is done: as §1
The third and final in vitro metabolite, P8-DO, is a direct synthesis precursor of P8-D6 and results from oxidative O-desalkylation of the complete side chain (Figure ). […] The formation of P8-DO is mainly catalyzed by CYP2C9 (0.10%) and 2D6 (0.09%) (Figure E). […]

T1 sequence (P10632 whole entry): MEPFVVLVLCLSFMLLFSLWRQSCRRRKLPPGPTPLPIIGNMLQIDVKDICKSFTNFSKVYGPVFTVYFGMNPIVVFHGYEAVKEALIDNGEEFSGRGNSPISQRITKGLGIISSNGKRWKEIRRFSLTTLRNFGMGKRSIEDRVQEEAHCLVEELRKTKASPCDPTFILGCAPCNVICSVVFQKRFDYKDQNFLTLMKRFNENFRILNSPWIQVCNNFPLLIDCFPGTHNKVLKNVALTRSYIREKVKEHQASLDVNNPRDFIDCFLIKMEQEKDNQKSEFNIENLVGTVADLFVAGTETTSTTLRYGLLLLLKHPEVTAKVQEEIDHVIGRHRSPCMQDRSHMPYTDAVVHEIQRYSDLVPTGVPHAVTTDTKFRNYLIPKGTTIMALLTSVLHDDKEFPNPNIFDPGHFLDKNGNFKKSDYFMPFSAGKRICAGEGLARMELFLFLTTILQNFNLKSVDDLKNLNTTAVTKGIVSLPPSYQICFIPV
T2 sequence (P08684 whole entry): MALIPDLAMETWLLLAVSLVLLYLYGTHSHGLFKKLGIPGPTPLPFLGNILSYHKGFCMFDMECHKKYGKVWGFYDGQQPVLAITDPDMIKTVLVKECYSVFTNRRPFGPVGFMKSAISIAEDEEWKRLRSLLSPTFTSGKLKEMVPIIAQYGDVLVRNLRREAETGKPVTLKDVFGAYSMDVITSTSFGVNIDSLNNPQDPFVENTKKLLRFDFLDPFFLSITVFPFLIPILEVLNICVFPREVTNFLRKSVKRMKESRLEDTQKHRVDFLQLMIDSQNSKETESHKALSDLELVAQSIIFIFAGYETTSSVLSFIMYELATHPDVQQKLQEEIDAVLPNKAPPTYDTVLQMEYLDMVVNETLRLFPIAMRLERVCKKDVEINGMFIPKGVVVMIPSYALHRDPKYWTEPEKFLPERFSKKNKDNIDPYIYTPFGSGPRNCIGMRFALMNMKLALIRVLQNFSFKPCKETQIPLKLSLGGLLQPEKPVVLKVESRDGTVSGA
T3 sequence (P11712 whole entry): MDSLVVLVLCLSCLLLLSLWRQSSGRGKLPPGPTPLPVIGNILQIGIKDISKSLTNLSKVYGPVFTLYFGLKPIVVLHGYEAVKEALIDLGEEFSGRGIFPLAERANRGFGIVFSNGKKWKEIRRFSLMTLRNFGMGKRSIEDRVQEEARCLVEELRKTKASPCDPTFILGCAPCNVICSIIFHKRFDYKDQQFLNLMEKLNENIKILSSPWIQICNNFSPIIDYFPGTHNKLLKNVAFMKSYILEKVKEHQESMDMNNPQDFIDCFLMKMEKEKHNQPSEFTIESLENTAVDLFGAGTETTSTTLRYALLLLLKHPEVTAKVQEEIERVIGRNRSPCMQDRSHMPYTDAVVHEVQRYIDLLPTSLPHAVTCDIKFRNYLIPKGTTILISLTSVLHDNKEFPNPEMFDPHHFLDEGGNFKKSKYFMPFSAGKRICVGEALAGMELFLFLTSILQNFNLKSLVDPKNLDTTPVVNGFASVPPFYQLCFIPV

As for `COc1cc(-c2cc3ccncc3c3nc(OCCN(C)C)c4cnccc4c23)cc(OC)c1OC` [P8-D6, 6-(N,N-dimethyl-2-aminoethoxy)-11-(3,4,5-trimethoxyphenyl)-pyrido[3,4-c][1,9]-phenanthroline], the negative-log IC50 (pIC50) is 3.61 on CYP2C8 (HLM) and 3.55 at CYP2C8 (recombinant CYP isoenzyme). Besides, in data set [1], the maximum tolerated dose is given as 5 mg/kg BW.

As to `CNCCOc1nc2c3cnccc3cc(-c3cc(OC)c(OC)c(OC)c3)c2c2ccncc12` [P8-D6 mono], the “formation of metabolite from P8-D6” value at CYP3A4 was 0.34%.

For the compound `COc1cc(-c2cc3ccncc3c3[nH]c(=O)c4cnccc4c23)cc(OC)c1OC` [P8-DO], the “formation of metabolite from P8-D6” value on CYP2C9 was determined as 0.10%.
